# According to PubChem BioAssay AID2060345 (Molecular Pharmacology Branch, DTP, NCI, 2025):
# Where “and” joins values, the source holds several entries; their conditions need not be identical. Identical values can stand only once.
# System: MALME-3M multicell spheroids, viability
# Assay: Anticancer human tumor MALME-3M cell line growth inhibition [TAK];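 note: spheroids exposed to drugs for seven days before readout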;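 for viability, T/C: 100% = DMSO vehicle control viability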
# Conditions: for viability, T/C: stronger effect = lower value
# Source text: Combinatorial screen of targeted agents with TAK-243 and ipatasertib in multi-cell type tumor spheroids
# A high-throughput screen of multi-cell type tumor spheroids was designed to identify active combinations of targeted small molecules and TAK-243 or ipatasertib. Complex spheroids include a stromal component modeled by human endothelial cells (HUVEC) and fibroblasts modeled by human mesenchymal stem cells (MSCs). The concentration ranges selected for each drug and investigational agent were based upon clinically achievable concentrations if the clinical Cmax of the agent was known.
# Compounds. The drugs and investigational agents: TAK-243 (785004), ipatasertib (767898), everolimus (733504), selumetinib (741078), bortezomib (756655), trametinib (758246), ixazomib (758254), vemurafenib (761431), dabrafenib (764134), sapanisertib (764658), alpelisib (765974), and copanlisib (816437), were obtained from the National Cancer Institute (NCI) Developmental Therapeutics Program Chemical Repository. The FDA-approved anticancer drug set is available from the NCI Developmental Therapeutics Program. […] The stock solutions were prepared in dimethyl sulfoxide (DMSO, Sigma-Aldrich, St. Louis, MO, cat. D2650) at 800-fold the tested concentration and stored at -70 degrees C prior to their use. All drugs and investigational agents were tested over a range starting from a high concentration at or near the clinical Cmax and decreasing in half-log increments. If the clinical Cmax for an agent had not been determined, the highest concentration tested was 10 microM.
# NCI60 Cell Culture. NCI60 cell lines were obtained from the NCI Developmental Therapeutics Program Tumor Repository. For each lot of cells, the Repository performed Applied Biosystems AmpFLSTR Identifiler testing with PCR amplification to confirm consistency with the published Identifier STR profile for each cell line. Cells were kept in continuous culture for no more than 20 passages. The optimal seeding densities for each of the cell lines at each time point assessed were determined prior to performing the concentration response studies. Briefly, the NCI60 human tumor lines were grown as monolayers in RPMI 1640 medium supplemented with 10% FBS and 2 mmol/L L-glutamine.
# An additional 2 lines were from the NCI60 cell line panel including melanomas, MALME-3M and SK-MEL-2. Pooled donor human umbilical vein endothelial cells (HUVEC, Lonza, cat. CC-2519) and human mesenchymal stem cells (hMSC, Lonza, cat. PT-2501) were purchased from Lonza (Walkersville, MD).
# PDMR cell lines were grown in complete medium (DC medium): Dulbecco's modified Eagle's medium (DMEM)/F12 supplemented with 5% fetal bovine serum (FBS), 2 mM L-glutamine, 100 U/mL penicillin and 100 µg/ml streptomycin, 0.4 µg/ml hydrocortisone, 10 ng/ml epidermal growth factor (EGF) recombinant human protein, 24 µg/mL adenine, and 0.1 mg/mL primocin. During culture from frozen stock vials, PDMR cells were cultured in the same medium containing 10 µM Y-27632 (see Table 3). The PDCs were cultured in complete DMEM/F12 media without 10 microM Y-27632 dihydrochloride for at least two passages prior to the screen. The pooled donor HUVEC and hMSC were cultured in endothelial cell growth medium 2 (PromoCell, Heidelberg, Germany, cat. C-22011) and mesenchymal stem cell growth medium 2 (PromoCell, cat. C-28009), respectively. For all experiments, HUVEC and hMSC were used at passages </=5.
# For the pre-screen, cell seeding densities were determined from a titration spanning the range from 5,000 to 313 cells per well. The mct-spheroids including 60% malignant cells, 25% HUVEC and 15% MSC dispensed as a mixture into U-bottom Ultra-Low Attachment 384-well plates (Corning, NY)
# High-throughput Drug Combination Screening.
# Prior to their inoculation into 384-well plates, malignant cells, HUVEC, and hMSC were removed from T flasks using TrypLE express (Thermo Fisher Scientific, cat. 12605036) and harvested by centrifugation for 5 min at 233 x g. […]
structure (smiles),measurement,setting,value
CC(=O)Nc1cccc(-n2c(=O)n(C3CC3)c(=O)c3c(Nc4ccc(I)cc4F)n(C)c(=O)c(C)c32)c1,"viability, T/C",compound 94.9 pM,92.9% and 86.3%
same,"viability, T/C",compound 0.0003 µM,48.6% and 49.9%
same,"viability, T/C",compound 0.000949 µM,20.2% and 18.5%
same,"viability, T/C",compound 0.003 µM,15.9% and 15.3%
same,"viability, T/C",compound 0.00949 µM,9.62% and 9.1%
same,"viability, T/C",compound 0.03 µM,5.56% and 5.65%
same,IC50,curve of compound,0.284 nM and 0.293 nM
CC(C)n1nc(-c2ccc3oc(N)nc3c2)c2c(N)ncnc21 + CC(C)NCC(C(=O)N1CCN(c2ncnc3c2C(C)CC3O)CC1)c1ccc(Cl)cc1,IC50,"curve of first compound, second compound 0.3 µM",12.1 nM
same,IC50,"curve of first compound, second compound 0.949 µM",7.82 nM
same,IC50,"curve of first compound, second compound 3 µM",5.3 nM
same,IC50,"curve of first compound, second compound 9.49 µM",1.81 nM
same,IC50,"curve of first compound, second compound 30 µM",< 0.316 nM
same,"viability, T/C","second compound 0.3 µM, first compound 0.000316 µM",87.8%
same,"viability, T/C","second compound 0.3 µM, first compound 0.001 µM",76.1%
same,"viability, T/C","second compound 0.3 µM, first compound 0.00316 µM",69.3%
same,"viability, T/C","second compound 0.3 µM, first compound 0.01 µM",55.7%
same,"viability, T/C","second compound 0.3 µM, first compound 0.0316 µM",31.3%
same,"viability, T/C","second compound 0.3 µM, first compound 0.1 µM",11.2%
same,"viability, T/C","second compound 0.949 µM, first compound 0.000316 µM",81.6%
same,"viability, T/C","second compound 0.949 µM, first compound 0.001 µM",74.7%
same,"viability, T/C","second compound 0.949 µM, first compound 0.00316 µM",65.6%
same,"viability, T/C","second compound 0.949 µM, first compound 0.01 µM",46.6%
same,"viability, T/C","second compound 0.949 µM, first compound 0.0316 µM",23.1%
same,"viability, T/C","second compound 0.949 µM, first compound 0.1 µM",10%
same,"viability, T/C","second compound 3 µM, first compound 0.000316 µM",67.6%
same,"viability, T/C","second compound 3 µM, first compound 0.001 µM",61.1%
same,"viability, T/C","second compound 3 µM, first compound 0.00316 µM",52.4%
same,"viability, T/C","second compound 3 µM, first compound 0.01 µM",45.8%
same,"viability, T/C","second compound 3 µM, first compound 0.0316 µM",14.5%
same,"viability, T/C","second compound 3 µM, first compound 0.1 µM",6.89%
same,"viability, T/C","second compound 9.49 µM, first compound 0.000316 µM",62%
same,"viability, T/C","second compound 9.49 µM, first compound 0.001 µM",56.7%
same,"viability, T/C","second compound 9.49 µM, first compound 0.00316 µM",43.7%
same,"viability, T/C","second compound 9.49 µM, first compound 0.01 µM",22.5%
same,"viability, T/C","second compound 9.49 µM, first compound 0.0316 µM",9.06%
same,"viability, T/C","second compound 9.49 µM, first compound 0.1 µM",4.23%
same,"viability, T/C","second compound 30 µM, first compound 0.000316 µM",36.5%
same,"viability, T/C","second compound 30 µM, first compound 0.001 µM",37.5%
same,"viability, T/C","second compound 30 µM, first compound 0.00316 µM",28.6%
same,"viability, T/C","second compound 30 µM, first compound 0.01 µM",17.2%
same,"viability, T/C","second compound 30 µM, first compound 0.0316 µM",8.52%
same,"viability, T/C","second compound 30 µM, first compound 0.1 µM",4.01%
CC(C)NCC(C(=O)N1CCN(c2ncnc3c2C(C)CC3O)CC1)c1ccc(Cl)cc1 (centres undefined),"viability, T/C",compound 9.49 µM,76% [middle of 10 runs]
same,"viability, T/C",compound 30 µM,50.4% [middle of 10 runs]
same,IC50,"compound alone, run of 02/20/2020",> 30000 nM and 23200 nM and 14800 nM
Cn1cnc2c(F)c(Nc3ccc(Br)cc3Cl)c(C(=O)NOCCO)cc21,"viability, T/C",compound 0.00949 µM,82.6% and 84.7%
same,"viability, T/C",compound 0.03 µM,49% and 52.6%
same,"viability, T/C",compound 0.0949 µM,22% and 21.7%
same,"viability, T/C",compound 0.3 µM,15.4% and 16.9%
same,"viability, T/C",compound 0.949 µM,12%
same,"viability, T/C",compound 3 µM,5.64% and 5.37%
same,IC50,curve of compound,28.2 nM and 32 nM
CC(C)(C)c1nc(-c2cccc(NS(=O)(=O)c3c(F)cccc3F)c2F)c(-c2ccnc(N)n2)s1,"viability, T/C",compound 0.0316 µM,21.4% and 24.8%
same,"viability, T/C",compound 0.1 µM,22.8% and 21.5%
same,"viability, T/C",compound 0.316 µM,20.7% and 21.4%
same,"viability, T/C",compound 1 µM,22.4% and 21.4%
same,"viability, T/C",compound 3.16 µM,21.2% and 23.6%
same,"viability, T/C",compound 10 µM,29.8% and 27.6%
same,IC50,curve of compound,< 31.6 nM
